Like-named read-outs stand apart in the source and are kept apart here.
Key:
Pho1 acid phosphatase = assay: Acid phosphatase activity assay of plasmid-bearing pho4Δ pho1Δ cells; details: for Pho1 activity, % of the level attained with 15 μM thiamine: pTIN-pho1 cells
Procedure: Acid phosphatase activity assay. Aliquots of exponentially growing cultures were harvested, washed with water, and re-suspended in water. To quantify acid phosphatase activity, reaction mixtures (200 μl) containing 100 mM sodium acetate (pH 4.2), 10 mM p-nitrophenyl phosphate (NEB), and cells (ranging from 0.01 to 0.1 A600 units) were incubated for 5 min at 30° C. The reactions were quenched by addition of 1 ml of 1 M sodium carbonate; the cells were removed by centrifugation and the absorbance of the supernatant was measured at 410 nm. Acid phosphatase activity is expressed as the ratio of A410 (p-nitrophenol production) to A600 (cells). The data are averages (±SEM) of at least three assays using cells from three independent cultures.
To assay the activity of this promoter system, pho1 was used as the reporter gene driven by the tgp1 promoter (FIG. 1A). Cell surface-associated Pho1 activity is readily assayable colorimetrically via the conversion ofp-nitrophenylphosphate to p-nitrophenol. The pho1 gene was cloned downstream of the tgp1 5′ UTR in the pTIN vector with its native 3′ flanking DNA to yield the pTIN-pho1 plasmid (FIG. 1A). To test background acid phosphatase levels, a promoter-less pTIN pho1 vector was constructed that lacked the DNA segment spanning the regulatory nmt1-promoternc·tgp1·tgp1 promoter region as well as the tgp1 5′ UTR and only contained the pho1 ORF. These plasmids were introduced into a strain in which the chromosomal pho1 and pho4 genes encoding the cell-surface acid phosphatases Pho1 and Pho4 were deleted. Plasmid-bearing pho1Δ pho4Δ cells were grown to mid-log phase in Leu^− PMG medium without thiamine and subsequently diluted and grown in Leu^− PMG medium with or without 15 μM thiamine. Pho1 acid phosphatase activity was measured by incubating dilutions of cells with p-nitrophenylphosphate and measuring its conversion to p-nitrophenol for 5 min at 30° C. The amount of product formed (within the linear range of detection) was normalized to cell density and is plotted on the y-axis in FIG. 1B.

pho1 mRNA = assay: microbe, parasite or virus in culture; details: for fold induction at 15 µM: Schizosaccharomyces pombe
Procedure: Total RNA prepared from harvested samples was analyzed by reverse transcription primer extension using a mixture of radiolabeled primers complementary to the pho1 (top panel) or the act1 (bottom panel) mRNAs. The reaction products were resolved by denaturing urea-PAGE and visualized by autoradiography. The images shown in the top and bottom panels are from a single exposure of one gel. For conciseness of the figure, the intervening lanes of the gel were cropped (represented by the thin line separating the 3 and 10-hour samples). The positions and sizes (in nucleotides) of DNA markers are indicated on the left. Fold-induction reflects the ratio of the act1-normalizedpho1 signal at the indicated time to time-0.
RNA analysis. Total RNA was extracted via the hot phenol method (Köhrer K. and Domdey H., Method Enzymol: 398-405 (1991), which is hereby incorporated by reference) from 3 A600 units of harvested yeast cells. For analysis of specific transcripts by primer extension, aliquots (5 μg) of total RNA were templated for M-MuLV reverse transcriptase-catalyzed extensions of 5′ 32P-labeled oligodeoxynucleotide primers complementary to the phot and actl mRNAs in one reaction mix. The primer sequence for act1 was, 5′-[…] (SEQ ID NO: 12), and for pho1, 5′-[…] (SEQ ID NO: 13). The primer extension reactions were performed as described by Schwer B., et al., Nucleic Acids Res 26: 2050-2057 (1998), which is hereby incorporated by reference, and the products were analyzed by electrophoresis of the reaction mixtures through a 22-cm 8% polyacrylamide gel containing 7 M urea in 80 mM Tris-borate, 1.2 mM EDTA. The ^32P-labeled primer extension products were visualized by autoradiography of the dried gel. Quantification of pho1 and act1 mRNA levels was done by scanning the dried gel with a phosphorimager and analyzing the data in ImageQuant software.
Pho1 acid phosphatase activity in pho1Δ pho4Δ A cells bearing the pTIN pho1 plasmid was determined as a function of time after addition of thiamine (FIG. 2A). […] To gauge the level of phol mRNA, primer extension analysis using a pho1-specific radiolabeled primer for reverse-transcription was used, in parallel with an actin gene-specific primer as a control.

How did the EC50 (Pho1 acid phosphatase; Schizosaccharomyces pombe, read-out: dose of half maximal response (EC50) of Pho1 activity) turn out when Cc1ncc(C[n+]2csc(CCO)c2C)c(N)n1 [thiamine] was run?
Its EC50 is 69 ± 5 nM.

What about the fold induction at 15 µM (Pho1 acid phosphatase; Schizosaccharomyces pombe, read-out: fold induction of Pho1 activity) of the same compound?
The fold induction at 15 µM was 59.

What about the “rate of Pho1 activity increase between 7 and 11 hours, % of the initial rate (1 to 7 hours)” value (Pho1 acid phosphatase; pTIN pho1 cells after addition of 15 μM thiamine) of the same compound?
Its value is 58%.

What about the “fold increase in acid phosphatase activity” value (Pho1 acid phosphatase; pTIN pho1 cells, 15 μM thiamine vs thiamine-free medium, 21 hours) of the same compound?
The value was 58 fold.

What about the “fold increase in Pho1 level over the uninduced state” value (Pho1 acid phosphatase; pTIN pho1 cells, 23 hours after addition of 15 μM thiamine) of the same compound?
Its value is 53 fold.

What about the “Pho1 activity, % of the level attained with 15 μM thiamine” value (shortened to “Pho1 activity, % of the level attained”) (Pho1 acid phosphatase; 0.01 μM thiamine) of the same compound?
Its value is 8%.

And the “Pho1 activity, % of the level attained” value (Pho1 acid phosphatase; 0.025 μM thiamine)?
Its value is 16%.

What about the “Pho1 activity, % of the level attained” value (Pho1 acid phosphatase; 0.05 μM thiamine) of the same compound?
Its value is 33%.

What about the “Pho1 activity, % of the level attained” value (Pho1 acid phosphatase; 0.075 μM thiamine) of the same compound?
The value was 54%.

And the “Pho1 activity, % of the level attained” value (Pho1 acid phosphatase; 0.1 μM thiamine)?
Its value is 73%.

What about the “Pho1 activity, % of the level attained” value (Pho1 acid phosphatase; 0.3 μM thiamine) of the same compound?
The value was 93%.

What about the “Pho1 activity, % of the level attained” value (Pho1 acid phosphatase; 3 μM thiamine) of the same compound?
The value was 96%.

And the “fold increase in Pho1 activity on addition of thiamine” value (Pho1 acid phosphatase; pho1Δ pho4Δ cells bearing pTIN7m pho1, 22 hours)?
The value was 172 fold.

And the “thiamine concentration at which induction was saturated” value (Pho1 acid phosphatase; pho1Δ pho4Δ cells bearing pTIN-pho1)?
Its value is no less than 0.3 µM.

What about the fold induction at 15 µM (pho1 mRNA; 0.5 h, read-out: pho1 mRNA fold induction (act1-normalized, vs time-0)) of the same compound?
The fold induction at 15 µM was 25.

What about the fold induction at 15 µM (pho1 mRNA; 1 h, read-out: pho1 mRNA maximum fold induction) of the same compound?
Its fold induction at 15 µM is 61.

And the “transcriptional induction by the addition of thiamine (dynamic range of pTIN system)” value (pho1 mRNA; pTIN system)?
Its value is no more than 60 fold.

And the “time after induction at which target mRNA levels reach peak” value (pho1 mRNA; pTIN system, thiamine induction)?
The value was no more than 1 h.

And the “pho1 mRNA level, fold higher than the uninduced state” value (pho1 mRNA; pTIN-pho1 cells, all times assayed after 1 hour)?
The value was “approximately 60 fold”.
